Experimental data reported in ChEMBL document CHEMBL1201862, “PubChem BioAssay data set” (2004).
Calls of active or inactive are those of the source.

Experiments:
Protein RecA = molecular target: T1, Protein RecA (Mycobacterium tuberculosis, UniProt P9WHJ3); assay: Fluorescence Cell-Free Homogeneous Dose Retest to Identify Inhibitors of RecA-Intein Splicing Activity. [Related pubchem assays (depositor defined):AID2097, AID2223, AID489010, AID492950]; assay type: functional
T1 sequence (P9WHJ3 whole entry): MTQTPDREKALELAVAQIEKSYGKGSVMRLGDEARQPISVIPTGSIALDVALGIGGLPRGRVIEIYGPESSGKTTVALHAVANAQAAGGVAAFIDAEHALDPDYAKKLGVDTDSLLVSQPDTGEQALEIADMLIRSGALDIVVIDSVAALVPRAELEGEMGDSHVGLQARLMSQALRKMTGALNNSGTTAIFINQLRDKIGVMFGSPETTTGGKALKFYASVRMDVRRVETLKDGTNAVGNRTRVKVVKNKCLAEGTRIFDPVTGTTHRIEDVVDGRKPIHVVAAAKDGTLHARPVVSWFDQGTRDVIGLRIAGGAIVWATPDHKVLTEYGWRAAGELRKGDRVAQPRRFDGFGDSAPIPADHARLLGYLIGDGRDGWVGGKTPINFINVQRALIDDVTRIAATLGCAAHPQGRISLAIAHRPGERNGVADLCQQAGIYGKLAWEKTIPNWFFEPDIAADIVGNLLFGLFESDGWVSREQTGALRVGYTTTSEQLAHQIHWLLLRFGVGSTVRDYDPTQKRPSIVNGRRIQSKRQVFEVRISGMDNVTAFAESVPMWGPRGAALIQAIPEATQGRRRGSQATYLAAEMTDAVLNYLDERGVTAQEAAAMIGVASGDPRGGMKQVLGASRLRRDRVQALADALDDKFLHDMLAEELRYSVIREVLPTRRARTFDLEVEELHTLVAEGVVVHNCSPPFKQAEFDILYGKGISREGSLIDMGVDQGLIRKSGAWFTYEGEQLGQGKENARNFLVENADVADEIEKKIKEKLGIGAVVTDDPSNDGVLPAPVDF

[1] = molecular target: Dual specificity tyrosine-phosphorylation-regulated kinase 1A (Rattus norvegicus, UniProt Q63470); assay type: biochemical, Homo sapiens
[2] = molecular target: T2, Tyrosyl-DNA phosphodiesterase 2 (Homo sapiens, UniProt O95551); assay: potency against TDP2 phosphodiesterase activity – biochemical, epi absorbance, IC50, dose response (AID 743297)
T2 sequence (O95551 whole entry): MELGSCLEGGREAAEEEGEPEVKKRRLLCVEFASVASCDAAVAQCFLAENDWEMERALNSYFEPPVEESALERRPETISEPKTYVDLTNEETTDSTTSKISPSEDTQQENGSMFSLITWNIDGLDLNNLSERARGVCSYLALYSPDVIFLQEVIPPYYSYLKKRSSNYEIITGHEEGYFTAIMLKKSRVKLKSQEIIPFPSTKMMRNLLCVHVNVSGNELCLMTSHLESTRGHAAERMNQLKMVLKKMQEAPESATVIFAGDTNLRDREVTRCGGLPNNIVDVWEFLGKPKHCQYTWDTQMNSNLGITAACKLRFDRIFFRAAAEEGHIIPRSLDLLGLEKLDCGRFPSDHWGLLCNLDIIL

[3] = molecular target: T3, RNA-binding protein pos-1 (Caenorhabditis elegans, UniProt G5EF15); assay: disruptors of C. elegans POS-1 RNA interaction – biochemical, fluorescence polarization, dose response (AID 1964);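 also: purified POS-1 fused to maltose binding protein made in E. coli; potency of compounds blocking POS-1 binding to fluorescent RNA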
T3 sequence (G5EF15 whole entry): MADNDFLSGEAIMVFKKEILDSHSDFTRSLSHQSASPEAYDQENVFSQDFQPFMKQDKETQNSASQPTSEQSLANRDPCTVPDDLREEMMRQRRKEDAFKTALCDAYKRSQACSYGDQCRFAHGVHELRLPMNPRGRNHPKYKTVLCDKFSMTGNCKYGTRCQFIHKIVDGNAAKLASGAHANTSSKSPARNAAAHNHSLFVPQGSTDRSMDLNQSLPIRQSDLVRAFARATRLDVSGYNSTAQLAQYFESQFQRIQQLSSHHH

[4] = molecular target: T4, Zinc finger protein mex-5 (Caenorhabditis elegans, UniProt Q9XUB2); assay: potency of MEX-5 RNA-binding blockers – biochemical, C. elegans, fluorescence polarization, dose response (AID 1960)
T4 sequence (Q9XUB2 whole entry): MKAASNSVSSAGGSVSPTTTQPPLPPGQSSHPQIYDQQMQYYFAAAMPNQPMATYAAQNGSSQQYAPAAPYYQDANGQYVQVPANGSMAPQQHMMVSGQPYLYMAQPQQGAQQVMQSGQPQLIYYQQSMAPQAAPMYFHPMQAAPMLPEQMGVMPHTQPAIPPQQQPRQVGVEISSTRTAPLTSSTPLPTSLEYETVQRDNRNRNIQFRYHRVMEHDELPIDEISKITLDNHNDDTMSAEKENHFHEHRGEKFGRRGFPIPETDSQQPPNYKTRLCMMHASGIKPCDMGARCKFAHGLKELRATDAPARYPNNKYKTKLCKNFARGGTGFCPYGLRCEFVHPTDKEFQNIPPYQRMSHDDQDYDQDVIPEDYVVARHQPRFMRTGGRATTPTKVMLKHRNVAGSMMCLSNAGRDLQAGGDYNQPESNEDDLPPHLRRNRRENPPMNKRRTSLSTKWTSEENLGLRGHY

[5] = molecular target: Likely tRNA 2'-phosphotransferase (Candida albicans (strain SC5314 / ATCC MYA-2876) (Yeast), UniProt Q5A7N4); assay: inhibition of Candida TPT1 enzyme activity – biochemical, fluorescence polarization, dose response (AID 2160)
Likely tRNA 2'-phosphotransferase, sequence (Q5A7N4 whole entry): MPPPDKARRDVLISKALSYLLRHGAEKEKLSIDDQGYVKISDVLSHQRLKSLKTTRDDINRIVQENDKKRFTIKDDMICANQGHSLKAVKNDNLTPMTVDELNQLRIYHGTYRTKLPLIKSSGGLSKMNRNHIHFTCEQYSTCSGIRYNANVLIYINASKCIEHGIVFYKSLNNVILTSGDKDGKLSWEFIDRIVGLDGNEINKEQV

[6] = molecular target: T5, Dual specificity protein phosphatase 6 (Rattus norvegicus, UniProt Q64346); assay: inhibition of rat DUSP6 enzyme activity – biochemical, in vitro, primary screen (AID 425)
T5 sequence (Q64346 whole entry): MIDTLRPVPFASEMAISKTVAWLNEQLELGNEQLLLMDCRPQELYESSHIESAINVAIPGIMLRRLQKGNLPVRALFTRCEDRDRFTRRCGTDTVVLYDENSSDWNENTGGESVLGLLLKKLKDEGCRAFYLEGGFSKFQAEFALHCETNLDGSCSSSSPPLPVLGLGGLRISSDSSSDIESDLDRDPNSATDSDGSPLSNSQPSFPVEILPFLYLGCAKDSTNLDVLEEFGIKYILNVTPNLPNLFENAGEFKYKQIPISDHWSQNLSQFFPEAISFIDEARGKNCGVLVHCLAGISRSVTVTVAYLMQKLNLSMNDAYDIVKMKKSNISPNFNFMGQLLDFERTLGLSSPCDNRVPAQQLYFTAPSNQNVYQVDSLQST

SMILES | EC50 (Protein RecA) | AC50 [1] | IC50 [2] | EC50 [3] | EC50 [4] | IC50 [5] | IC50 [6]
COC(=O)c1cc(C)nc2c1C(=O)C(=O)C=C2N1CCOCC1 | 0.199 µM (active) | 0.983 µM (active) | 1.33 µM (active) |  |  |  | 
NS(=O)(=O)c1cc(C(=O)NC2CCSc3ccccc32)ccc1Cl (stereo not drawn) |  |  |  | 13.4 µM (inconclusive) | 18.9 µM (inconclusive) | 4.4 µM (active) | > 158 µM (not active)
O=C1c2ccccc2C(=O)c2[nH]c(O)nc21 |  |  |  | 28.9 µM (active) | 17.9 µM (active) |  | 
CCOC(=O)C1=C(C)OC2(O)c3ccccc3C(=O)C12O (stereo not drawn) |  |  | 4.11 µM (active) |  |  |  | 
N#Cc1c(N2CCCC2)nc(N)c2c(N)nc(N3CCCC3)cc12 | 0.109 µM (active) | 0.287 µM (active) |  |  |  |  | 1.05 µM (active)
